Measured values as given in patent US11911361B2, “Stable cannabinoid formulations” (priority 2014, dated 2024).

Key:
[1] = Pharmacokinetic food-effect study, single 20 mg/kg dose, healthy subjects (Example 17); details: human, in vivo, po, 20 mg/kg, cannabidiol; for Tmax: median (min, max); for AUC(0-inf): ln(AUC0-inf) Geometric Mean, period removed from model; for AUC(0-t): ln(AUC0-t) Geometric Mean
Protocol: An open label, randomized, single-dose, two-period, two-way crossover food-effect study was conducted on healthy subjects. […] Twenty-four (24) subjects were enrolled in the study and each were subjected to the fasted and fed treatment arms in separate periods followed by a 7-day wash-out period. For pharmacokinetic analysis, nominal time and default lambda-z selections were used. All below quantifiable limit values were set to zero and all subjects were included in the analysis.
Data from 13 subjects from the fasted treatment and 24 subject from the fed treatment were included in the pharmacokinetic and statistical analyses.

[2] = system: psychomotor seizure induced by 6 Hz stimulation; test: Minimal clonic seizure (6 Hz) psychomotor seizure test; details: intraperitoneal; for 6 HZ N/F (animals protected/tested): Anticonvulsant Screening, mice; for 6 Hz N/F (animals protected/tested) / 6 Hz N/F: CF1 mice; for ED50: Mus musculus, ip; for 6 Hz N/F: Time to Peak Effect (Table 54)
[3] = Minimal motor impairment (rotorod) toxicity test (TOX), mice; details: in vivo
[4] = system: U87 cells; test: Orthotopic mouse model of glioblastoma multiforme, U87 cells
[5] = Long-term safety study in pediatric patients with refractory epilepsy; details: human, in vivo, oral, 48 week
From the text: This was a long-term, open-label, 48-week study for pediatric subjects aged 1 year to 17 years with refractory epilepsy.
The study included 5 subjects aged 1 to <2 years (infants); 9 subjects aged 2 to <12 years (children), with ≥3 subjects under the age of 6 years; 6 subjects aged 12 to ≤17 years (adolescents), with ≥3 subjects under the age of 16 years.

[6] = system: U251 cells; test: Orthotopic mouse model of glioblastoma multiforme, U251 cells; assay type: in vivo, female athymic nu/nu mice
Protocol: All mice were injected intraperitoneally.
Survival between groups was compared using a Kaplan-Meier analysis and long-rank Mantel-Cox test or The Gehan-Breslow-Wilcoxon test. P values <0.05 defined statistical significance.

[7] = 20 mg/kg oral, Fasted, least squares geometric mean
[8] = 20 mg/kg oral, Fed, least squares geometric mean

SMILES: C=C(C)[C@@H]1CCC(C)=C[C@H]1c1c(O)cc(CCCCC)cc1O [cannabidiol, (−)-trans-2-p-mentha-1,8-dien-3-yl-5-pentylresorcinol]
- Cmax ([1]; Cmax, single 20 mg/kg oral dose of cannabidiol solution, fasted, mean): 27.3 ng/mL
- Cmax ([1]; Cmax, single 20 mg/kg oral dose of cannabidiol solution, fed, mean): 1560 ng/mL
- Tmax ([1]; single 20 mg/kg oral dose of cannabidiol solution, fasted): 12 h
- Tmax ([1]; single 20 mg/kg oral dose of cannabidiol solution, fed): 6 h
- AUC(0-inf) [1, 7]: 326 ng·h/mL
- AUC(0-inf) [1, 8]: 9580 ng·h/mL
- AUC(0-t) [1, 7]: 669 ng·h/mL
- AUC(0-t) [1, 8]: 9210 ng·h/mL
- Cmax ([1]; ln(Cmax) Geometric Mean, 20 mg/kg oral, Fasted, least squares geometric mean): 44.5 ng/mL
- Cmax ([1]; ln(Cmax) Geometric Mean, 20 mg/kg oral, Fed, least squares geometric mean): 1390 ng/mL
- 6 HZ N/F (animals protected/tested) ([2]; 10 mg/kg, 0.5 h, ethanol:polyethoxylated castor oil:PBS): 0/4
- 6 HZ N/F (animals protected/tested) ([2]; 10 mg/kg, 0.5 h, methylcellulose): 0/4
- 6 HZ N/F (animals protected/tested) ([2]; 10 mg/kg, 1.0 h, ethanol:polyethoxylated castor oil:PBS): 0/4
- 6 HZ N/F (animals protected/tested) ([2]; 10 mg/kg, 1.0 h, methylcellulose): 0/4
- 6 HZ N/F (animals protected/tested) ([2]; 10 mg/kg, 2.0 h, ethanol:polyethoxylated castor oil:PBS): 0/4
- 6 HZ N/F (animals protected/tested) ([2]; 10 mg/kg, 2.0 h, methylcellulose): 0/4
- 6 HZ N/F (animals protected/tested) ([2]; 30 mg/kg, 0.5 h, ethanol:polyethoxylated castor oil:PBS): 0/4
- 6 HZ N/F (animals protected/tested) ([2]; 30 mg/kg, 0.5 h, methylcellulose): 0/4
- 6 HZ N/F (animals protected/tested) ([2]; 30 mg/kg, 1.0 h, ethanol:polyethoxylated castor oil:PBS): 0/4
- 6 HZ N/F (animals protected/tested) ([2]; 30 mg/kg, 1.0 h, methylcellulose): 0/4
- 6 HZ N/F (animals protected/tested) ([2]; 30 mg/kg, 2.0 h, ethanol:polyethoxylated castor oil:PBS): 0/4
- 6 HZ N/F (animals protected/tested) ([2]; 30 mg/kg, 2.0 h, methylcellulose): 0/4
- 6 HZ N/F (animals protected/tested) ([2]; 100 mg/kg, 0.5 h, ethanol:polyethoxylated castor oil:PBS): 2/4
- 6 HZ N/F (animals protected/tested) ([2]; 100 mg/kg, 0.5 h, methylcellulose): 1/4
- 6 HZ N/F (animals protected/tested) ([2]; 100 mg/kg, 1.0 h, ethanol:polyethoxylated castor oil:PBS): 0/4
- 6 HZ N/F (animals protected/tested) ([2]; 100 mg/kg, 1.0 h, methylcellulose): 0/4
- 6 HZ N/F (animals protected/tested) ([2]; 100 mg/kg, 2.0 h, ethanol:polyethoxylated castor oil:PBS): 0/4
- 6 HZ N/F (animals protected/tested) ([2]; 100 mg/kg, 2.0 h, methylcellulose): 0/4
- 6 Hz N/F (animals protected/tested) ([2]; ED50 Biological Response (Table 53), 30 mg/kg, 0.5 h, methylcellulose): 0/8
- 6 Hz N/F (animals protected/tested) ([2]; ED50 Biological Response (Table 53), 65 mg/kg, 0.5 h, methylcellulose): 5/8
- 6 Hz N/F (animals protected/tested) ([2]; ED50 Biological Response (Table 53), 130 mg/kg, 0.5 h, methylcellulose): 5/8
- 6 Hz N/F (animals protected/tested) ([2]; ED50 Biological Response (Table 53), 160 mg/kg, 0.5 h, methylcellulose): 8/16
- 6 Hz N/F (animals protected/tested) ([2]; ED50 Biological Response (Table 53), 190 mg/kg, 0.5 h, methylcellulose): 7/8
- 6 Hz N/F (animals protected/tested) ([2]; ED50 Biological Response (Table 55), 50 mg/kg, 0.5 h, ethanol:polyethoxylated castor oil:PBS): 1/8
- 6 Hz N/F (animals protected/tested) ([2]; ED50 Biological Response (Table 55), 100 mg/kg, 0.5 h, ethanol:polyethoxylated castor oil:PBS): 1/8
- 6 Hz N/F (animals protected/tested) ([2]; ED50 Biological Response (Table 55), 130 mg/kg, 0.5 h, ethanol:polyethoxylated castor oil:PBS): 4/8
- 6 Hz N/F (animals protected/tested) ([2]; ED50 Biological Response (Table 55), 170 mg/kg, 0.5 h, ethanol:polyethoxylated castor oil:PBS): 6/8
- 6 Hz N/F (animals protected/tested) ([2]; ED50 Biological Response (Table 55), 200 mg/kg, 0.5 h, ethanol:polyethoxylated castor oil:PBS): 8/8
- ED50 ([2]; 1:1:18 ethanol:polyethoxylated castor oil:PBS solvent): 122 mg/kg
- ED50 ([2]; methylcellulose solvent): 104 mg/kg
- 6 Hz N/F ([2]; 300 mg/kg, 0.25 h, methylcellulose): 1/8
- 6 Hz N/F ([2]; 300 mg/kg, 0.5 h, methylcellulose): 0/8
- 6 Hz N/F ([2]; 300 mg/kg, 1 h, methylcellulose): 0/8
- 6 Hz N/F ([2]; 300 mg/kg, 2 h, methylcellulose): 0/8
- 6 Hz N/F ([2]; 300 mg/kg, 4 h, methylcellulose): 0/8
- 6 Hz N/F ([2]; 300 mg/kg, 6 h, methylcellulose): 0/8
- 6 Hz N/F ([2]; 300 mg/kg, 24 h, methylcellulose): 0/8
- 6 Hz N/F ([2]; 500 mg/kg, 0.25 h, methylcellulose): 1/8
- 6 Hz N/F ([2]; 500 mg/kg, 0.5 h, methylcellulose): 0/8
- 6 Hz N/F ([2]; 500 mg/kg, 1 h, methylcellulose): 0/8
- 6 Hz N/F ([2]; 500 mg/kg, 2 h, methylcellulose): 0/8
- 6 Hz N/F ([2]; 500 mg/kg, 4 h, methylcellulose): 0/8
- 6 Hz N/F ([2]; 500 mg/kg, 6 h, methylcellulose): 0/8
- 6 Hz N/F ([2]; 500 mg/kg, 24 h, methylcellulose): 2/8
- TD50 at 2 h ([3]; CF1, mouse, TD50, Example 12, 1:1:18 ethanol:polyethoxylated castor oil:PBS solvent): 262 mg/kg
- TD50 at 0.5 hours ([3]; CF1, mouse, TD50, Example 12, methylcellulose solvent, 0.5 hours post administration): > 500 mg/kg
- TD50 at 2 h ([3]; mouse, TD50, Example 13, 1:1:18 ethanol:polyethoxlated castor oil:PBS solvent): 267 mg/kg
- TD50 at 2 h ([3]; mouse, TD50, Example 13, methylcellulose solvent): > 500 mg/kg
- glioblastoma multiforme progression (in words) ([4]; 15 mg/kg alone, intraperitoneal): did not inhibit glioblastoma multiforme progression
- effect on antitumor activity of temozolomide (in words) ([4]; 15 mg/kg with temozolomide 2 mg/kg, intraperitoneal): enhanced the antitumor activity of suboptimal doses of temozolomide leading to a significant increase in survival
- full regression of tumors ([4]; mouse, in vivo): 20%
- subjects with somnolence related to the CBD [5]: 7.7%
- subjects with weight increase related to the CBD [5]: 7.7%
- effect on antitumor activity of temozolomide (in words) ([6]; 15 mg/kg cannabidiol with temozolomide 1.5 mg/kg): enhanced the antitumor activity of temozolomide
- survival (in words) ([6]; vehicle outlier included): did not increase survival
